Measurements taken from patent publication US7803768B2, “Method for treatment of hyperglycemia in a subject in need thereof” (Kyoto University, priority 2005, dated 2010).
Where no end group is shown, it is not given here. [ ]: non-standard residue; d: D form. The star is where a group is joined. Octanoyl = CCCCCCCC(=O)*

What was measured:
neonatal rat STZ model = assay: neonatal rat STZ model, human ghrelin or GHRP-2 (Examples 3 and 4); type: in vivo, Sprague Dawley rats; details: 9th week after birth; for Body weights: FIG. 7A / FIG. 8A; for Pancreas weights: FIG. 7B / FIG. 8B; for Insulin Content (Gut Side): calculated from gut-side pancreas sample; for Insulin Content (Gut Side) / Insulin Content (Spleen Side): mean ± SE; for Insulin Content (Spleen Side): calculated from spleen-side pancreas sample
Description: Sprague Dawley female pregnant rats, purchased from Charles River, were allowed free access to tap water and a standard pellet rat diet (CRF-1, Oriental Yeast Co., Ltd.), and natural deliveries were allowed. Three experimental groups as follows were set: control group wherein rats received single peritoneal injection of citrate buffer immediately after birth; STZ-vehicle group wherein rats received single peritoneal injection of STZ, and then vehicle (5% mannitol solution) was subcutaneously administered twice a day from the 2nd day after birth for 7 days; and STZ-human ghrelin group wherein rats received single peritoneal injection of STZ, and then human ghrelin (sequence No. 1, 100 μg/kg body weight) was subcutaneously injected twice a day from a 2nd day after birth for 7 days.
STZ was prepared and administered as in the example 1. Each male neonatal rat was checked for urinary sugar on the 2nd day with Pretest 3aII (Wako Pure Chemical Industries, Ltd.). Only rats that were glycosuric (3+ value with Pretest 3aII) at day 2 after birth were included in the following studies. The rats were weaned in the evening on the 20th day after birth. Blood samples were collected from tail vein while awake at 8th week (57th day) after birth to measure plasma glucose and insulin concentrations. In addition, after measuring body weight at 9th week (62nd or 63rd day) after birth, blood samples were collected from abdominal aorta under anesthesia with intraperitoneal injection of pentobarbital sodium (50 mg/kg). Whole pancreases were removed and weighed. Thereafter, the pancreases were divided into two pieces and kept for insulin content measurement. Blood samples were centrifuged immediately at 4° C. to prepare plasma samples, and kept at −80° C. until measurement of glucose and insulin concentrations. Glucose concentration was measured using a Glucose CII-test Wako (Wako Pure Chemical Industries, Ltd.), while insulin concentration was measured using a highly sensitive insulin measurement kit (Morinaga Institute of Biological Science, Inc.).
Experimental materials, experimental methods and evaluation methods were similar to those in the example 2. As a test substance, 100 μg/kg of GHRP-2 was subcutaneously administered twice a day from a 2nd day after birth for 7 days (an STZ-GHRP-2 group).

n0-STZ model = assay: n0-STZ model: neonatal streptozotocin-treated rats given rat ghrelin (Example 1); type: in vivo, Sprague Dawley rats; details: for Plasma Insulin: 100 μg/kg s.c. twice a day, 2nd to 8th day after birth, mean ± SE
Description: Female or male Sprague Dawley rats, purchased from Charles River were, were allowed free access to tap water and a standard pellet rat diet (352 kcal/100 g, CE-2, CLEA). Females were caged with a male for one night, and pregnancy was detected by abdominal palpation 14 days later. Natural birth occurred 22 days after mating. We examined three experimental groups as follows: a control group (Sprague Dawley rats) wherein newborn rats received a single intraperitoneal injection of citrate buffer; an n0-STZ group wherein rats received a single intraperitoneal injection of streptozotocin (STZ); and an n0-STZ/ghrelin group wherein rats received a single intraperitoneal injection of streptozotocin, and then received rat-derived ghrelin (hereafter reffered to as rat ghrelin, sequence No. 3, 100 μg/kg body weight) by subcutaneous injection twice a day on the 2nd to 8th day after birth for 7 days.
Streptozotocin (Sigma, 100 mg/kg body weight) was dissolved in citrate buffer (0.05 mmol/L, pH4.5) and immediately injected intraperitoneally once into a rat immediately after birth. Pups were left with their mothers. Each neonatal rat was checked for urinary sugar on the 2nd day with Multistix SG (Bayer Medical). Only rats that were glycosuric (3+ value with Multistix SG test) at day 2 after birth were included in the n0-STZ model group. Animals were killed at 21 or 70 days by bleeding under anesthesia with intraperitoneal injection of pentobarbital sodium (50 mg/kg).
After excision, pancreases were removed and weighed. To measure insulin content, pancreases (35-50 mg) were homogenized and centrifuged in 5 ml of acid-ethanol (0.15 M HCl 75% (v/v)-ethanol solution), and the supernatants were kept at −80° C. For immunohistochemistry, additional pancreases were fixed in 4% paraformaldehyde fixative for 24 hours, and embedded in paraffin.
Insulin and pdx-1 were detected immunohistochemically on 3 μm-thick tissue sections using an indirect peroxidase-labeling technique. Each section was incubated with a primary antibody (guinea pig anti-porcine insulin, DACO) or (rabbit anti-mouse/rat IDX-1; CHEMICON) for 1 hour. Staining was performed by incubation with 3,3′-diaminobenzidine tetrahydrochloride (DAB) kit (DakoCytomation). Quantitative evaluations of total β cells area were performed by a computer-assisted image analysis procedure using an Olympus BX 51 microscope connected to a digital camera DP 12 and Mac SCOPE Ver2.6 software (Mitani, Fukui, Japan). β cells area and total pancreatic section area were evaluated for each stained section. A relative volume of β cells was determined by a sterological morphological method, with calculation of the ratio between the areas occupied by immunoreactive cells and those occupied by total pancreatic cells.
Total RNA was extracted from rat pancreases as previously reported (Biochem. Biophys. Res. Commun., 214, pp. 239-246, 1995). To synthesis the first-strand cDNA, the extracted products were used as templates in reactions containing RT (Invitrogen) and the target 3′ primer. An RT-PCR analysis was performed according to a method previously reported (Biochem. Biophys. Res. Commun., 214, pp. 239-246, 1995). The first strand cDNA was used in subsequent PCR analyses. In the PCR analyses, oligonucleotide primers as follows were used for each target cDNA. The identity of the PCR product was confirmed by agarose gel electrophoresis.
Realtime PCR was performed as follows. The cDNA (1 μl) was mixed with 2×PCR Master Mix (Applied Biosystems) (25 μl), sterilized distilled water (23 μl), and sense and antisense primers ([…], 0.5 μl) of insulin and Pdx-1. Forty cycles of PCR amplification were carried out using the thermal cycler system (ABI PRISM 7700, Applied Biosystems, Japan), for 15 seconds at 95° C. followed by 60 seconds at 60° C. The concentration of each mRNA product was quantified using calibration curves expressing the fluorescence intensity against the amount of standardized PCR product. […]

β cells = assay: β cell replication, phospho-histone H3 / insulin double staining of pancreatic sections (Example 2); type: in vivo, rat; details: for Double positive cells for phospho-histone H3 and insulin: 10-week-old rats, FIG. 6, no significant difference among four groups; for Increase of double positive cells for phospho-histone H3 and insulin: 21-day-old rats, FIG. 5B
Experimental: Pancreatic sections that had not been used for morphological studies were used to examine β cell replication. The sections were subjected to double staining for phospho-histone H3 (Ser10) and insulin. The sections were incubated overnight with 50-fold dilution of anti-phospho-histone H3 (Ser10) antibody (Cell Signaling Technology) at 4° C. Thereafter, the sections were incubated with guinea pig anti-insulin antibody at a room temperature for 1 hour. After washing with PBS for 6 times, the sections were incubated at a room temperature for 30 minutes in a blocking solution with a secondary antibody conjugated with fluorescence (Alexa Fluor 488 and 546, Molecular Probe). After washing with PBS, sections were mounted with mounting medium containing DAPI (Vector Laboratories) and examined with confocal laser scanning microscopy (Leica Microsystems). At least 1,000β cells were counted per section.

[1] = test system: high fatty acid diet-fed mice; assay: high fatty acid diet-fed mice with linoleic acid loading (Example 5); type: in vivo, Crj:CD1(ICR) mice
Description: Male Crj:CD1(ICR) mice (Charles River Japan) were allowed free access to tap water and a standard pellet mouse diet (CRF-1, Oriental Yeast Co., Ltd.) (with lighting hours from 21 to 9 o'clock). Normal control mice were kept in this condition (normal diet, an ND group). A high fatty acid diet group (High Fat Diet, an HFD group) was allowed to freely take a mixture of 5 g CRF-1 (powder) with 1 g linoleic acid as a high fatty acid diet from the 4th week after birth. As test substances, a vehicle (5% mannitol solution) (an HFD-vehicle group) or 300 μg/kg of human ghrelin (an HFD-ghrelin group) was administered twice a day (once a day in a holiday) for about 7 weeks from the day of the start of high fatty acid diet load. Changes in the body weights and ad lib blood sugar levels after the start of test substance administration were monitored. In addition, mice were fasted overnight on the 50th day from the start of test substance administration, and then linoleic acid (1 mL/kg, intraperitoneal administration) was acutely loaded on a next day to measure plasma glucose and plasma insulin concentrations 1 hour later. The blood sugar value was measured using Antisense II (Horiba, Ltd.), while plasma glucose concentration and insulin concentration were measured using a Glucose CII-test Wako (Wako Pure Chemical Industries, Ltd.) and a Lebis insulin kit (TMB for a mouse) (Shibayagi Co. Ltd.), respectively.

For “A[dW]AW[dF]K-NH2 [GHRP-2, reference compound]”, the “Insulin contents in pancreases relative to the STZ-vehicle group” value (neonatal rat STZ model) was “higher than those of the STZ-vehicle group”, the Body weights (neonatal rat STZ model) was “not significantly different from those of the control group” and the Pancreas weights (neonatal rat STZ model) was “greater than those of the STZ-vehicle group”. For the same substance, the “Insulin Content (Gut Side)” value (neonatal rat STZ model) was 81.7 ± 4.6 μg/pancreas and the “Insulin Content (Spleen Side)” value (neonatal rat STZ model) was 146.8 ± 10.9 μg/pancreas.
In the case of “GSS(n-octanoyl)FLSPEHQKAQQRKESKKPPAKLQPR [rat ghrelin]”, the “Plasma Insulin” value (n0-STZ model; 10-week-old rats) is reported as 0.93 ± 0.49 ng/mL, the “Plasma Insulin” value (n0-STZ model; 21-day-old rats) is reported as 0.35 ± 0.17 ng/mL and the “Insulin mRNA expression levels within the pancreases” value (n0-STZ model; 21st day after birth, FIG. 1A) is reported as “returned to levels similar to those of the control group”. The “pdx-1 gene expression levels in pancreas” value (n0-STZ model; 21st day after birth, FIG. 2A) was “recovered to the levels similar to those in the control group”, the “Islet of Langerhans size, insulin immunostaining of pancreases” value (n0-STZ model; 21st day after birth, FIGS. 1B-E) was “larger than that of the n0-STZ group but smaller than that of the control group” and the “Pdx-1 gene expression in pancreas” value (n0-STZ model; 70th day after birth (adult rats), FIG. 4A) was “returned to the level close to that of the control group”. The “Insulin mRNA expression in pancreas” value (n0-STZ model; 70th day after birth (adult stage), FIG. 3B) was “a level similar to that of the control group”, the “Islet of Langerhans size, insulin immunohistochemical staining” value (n0-STZ model; 70th day after birth, FIGS. 3C-F) was “larger than that of the n0-STZ group but smaller than that of the control group” and the “Double positive cells for phospho-histone H3 and insulin” value (β cells; STZ model) was “tendency for double positive cells for phospho-histone H3 and insulin to increase”. For the same substance, the “Double positive cells for phospho-histone H3 and insulin” value (β cells; control group (no STZ)) was “tended to decrease”, the “Increase of double positive cells for phospho-histone H3 and insulin” value (β cells; ghrelin group as compared to control rats) was “approximately 1.7 fold” and the “Increase of double positive cells for phospho-histone H3 and insulin” value (β cells; n0-STZ/ghrelin group as compared to n0-STZ rats) was about 15 fold.
“GSS(n-octanoyl)FLSPEHQRVQQRKESKKPPAKLQPR (GSS(Octanoyl)FLSPEHQRVQQRKESKKPPAKLQPR; listed as Homo Sapiens) [human ghrelin]” was tested, and the “Insulin contents in pancreases relative to the STZ-vehicle group” value (neonatal rat STZ model) was “about twice as high as those of the STZ-vehicle group”, the Body weights (neonatal rat STZ model) was “comparable to those of the control group” and the Pancreas weights (neonatal rat STZ model) was “significantly greater than those of the STZ-vehicle group”. The “Insulin Content (Gut Side)” value (neonatal rat STZ model) was 63.0 ± 6.7 μg/pancreas, the “Insulin Content (Spleen Side)” value (neonatal rat STZ model) was 120.9 ± 14.1 μg/pancreas and the “ad lib blood sugar levels” value ([1]; 43rd day of high fatty acid diet and 300 μg/kg s.c. administration, FIG. 9B) was “tended to decrease as compared to the HFD-vehicle group”. The “Plasma glucose concentrations after linoleic acid loading” value ([1]; 1 hour after 1 mL/kg linoleic acid i.p., FIG. 10B) was “tended to be low as compared to the HFD-vehicle group”, the “Plasma glucose concentrations before linoleic acid loading” value ([1]; after 50 days of high fatty acid diet and 300 μg/kg administration, fasted overnight, mean of 8 mice ± standard error) was 141 ± 5 mg/dL and the “Plasma insulin concentrations after linoleic acid loading” value ([1]; after 50 days, fasted overnight, 1 hour after 1 mL/kg linoleic acid i.p., FIG. 10A) was “higher than those of the HFD-vehicle group”.
